Like-named read-outs stand apart in the source and are kept apart here.
Key:
[1] = tested on: Aβ40 levels in APOE4-TR mouse brain; assay: Acute PK/PD dose-response study in APOE4-TR mice: Aβ40 in forebrain (MSD assay); assay type: in vivo; conditions: for Mini AUEC (brain Aβ40): 4 h and 24 h; for Aβ40 reduction, range over doses: 3, 10 and 30 μmol/kg
Experimental: Male and female transgenic homozygous APOE4-TR (B6. 129P2-Apoe^tm3(APOE*4)Mae N8, Taconic, Model 001549, 3-5 months old, n=48) were obtained from Taconic.
Compound 1 was formulated as a suspension. Vehicle or compound was given by oral administration in a volume of 10 ml/kg once. Vehicle: 0.1% Tween80 in 0.5% Methylcellulose in water. […]
(§1) Frozen mouse forebrains were weighed and homogenized in 9 volumes (w/v) of ice-cold TBS-Complete (20 mM Tris-HCl pH 7.4, 137 mM NaCl, 1× Complete [Protease Inhibitor Cocktail Tablets: 1 836 145, Roche Diagnostics GmbH, Penzberg, Germany]) by sonication (90% duty cycle, output control 5, 40-55 pulses, [Sonifier 450, Branson]). After homogenization several 50 μl aliquots were prepared for analysis and were stored at −80° C.
Endogenous Aβ40 in mice was determined with the Meso Scale Discovery (MSD) 96-well MULTI-ARRAY human/rodent (4G8) Aβ40 Ultrasensitive Assay (#K110FTE-3, Meso Scale Discovery, Gaithersburg, USA). The assay was performed according to the manufacturer's instructions except for the calibration curve and the sample preparations. TritonX-100 (TX-100) soluble Aβ40 was extracted from forebrain with 1% TX-100 using a 50 μl aliquot of each 1:10 forebrain homogenate, mixed with 50 μl 2% TX-100 in TBS complete (20 mM Tris-HCl pH 7.4, 137 mM NaCl, 1× Complete [Protease Inhibitor Cocktail Tablets: 1 836 145, Roche Diagnostics GmbH, Penzberg Germany]) to reach a final concentration of 1% TX-100 and a 1:20 forebrain dilution. The samples were incubated for 15 min on ice and vortexed every 5 min. The samples were ultra-centrifuged (100000×g, 4° C., 15 min) and 50 μl of the clear supernatants were transferred to fresh tubes. For the Aβ40 assay the supernatants were further diluted 1:5 in 3% Blocker A solution (from kit) to a final forebrain dilution of 1:100 and applied to the plate.
The calibration curve was prepared in a corresponding dilution of 1% Blocker A solution spiked with synthetic Aβ1-40 peptide (1.56-100 pg/ml) except for non-transgenic mouse brain samples: In this case, the calibration curve was prepared in a correspondingly diluted APP knockout mouse forebrain spiked with synthetic Aβ1-40 peptide (1.56-100 pg/ml). For all samples and standards 25 μl were applied per well. For each determination duplicate wells were done. The mean values from the duplicate wells were used for calculations.

[2] = both, APOE4-TR, mouse, in vivo
Experimental: Vehicle or compound was given by oral administration in a volume of 10 ml/kg once. Vehicle: 0.1% Tween80 in 0.5% Methylcellulose in water.
The right brain was fixed in 4% paraformaldehyde, washed in PBS and then embedded in paraffin for possible future histological analyses.

Aβ40 in CSF = assay: First-in-human single and multiple ascending oral dose study: Aβ40 in CSF; assay type: in vivo; conditions: for Dose-dependent lowering of Aβ40 concentrations in CSF, up to: healthy elderly subjects
Experimental: (§2) The purpose of this study was to determine the single and multiple maximum tolerated dose of Compound 1 and to assess the pharmacokinetic/pharmacodynamic (PK/PD) relationship using Aβ in CSF as primary PD biomarker.
Pharmacodynamic assessments using Aβ concentrations in CSF as primary biomarker of drug action were also been applied in healthy elderly subjects. Dose-dependent lowering of Aβ40 concentrations was determined up to approximately 80% and 90% after single and multiple dosing, respectively (Tables 9 and 10, FIG. 7).
In the completed first-in-human and 3-month dose-ranging safety and tolerability clinical studies described in Examples 3 and 4, Aβ concentrations in CSF were obtained by means of lumbar punctures before the first dose (baseline) and respectively after 2 weeks and 3 months of multiple dosing. ApoE4 genotype also was obtained in the subjects who consented. The percent change from baseline in Aβ40 and Aβ42 concentrations was calculated in subjects who took the study treatment and had no major protocol deviation with potential impact on the evaluation of the pharmacodynamic effect. Tables 13 to 16 below provide summary statistics of the percent change from baseline by treatment group and ApoE genotype (E4 heterozygotes versus E4 non-carriers). Only one subject with CSF data was E4 homozygote (from the 3-month dose-ranging safety and tolerability study).

[3] = First-in-human study: safety and tolerability; assay type: in vivo; conditions: healthy elderly subjects ≥60 years
Description: as §2

[4] = 3-month dose-ranging safety and tolerability study; assay type: in vivo, human; conditions: once-daily doses of 2, 10, 35 and 85 mg over three months; healthy elderly
Description: This study is listed in ClinicalTrials.gov under the NCT02576639 Identifier code.
The primary purpose of this study was to expand on previous safety and tolerability data obtained over 2-week and 4-week duration in the first in human study and thereby allow initiation of future long-term efficacy trials in subjects at risk of AD and CAA. In addition, data relevant for Pharmacokinetic/Pharmacodynamic modeling was obtained in order to support dose selection decisions for future efficacy studies.

[5] = 3-month dose-ranging study: plasma pharmacokinetics on Day 91; assay type: in vivo; conditions: human, oral, read-out: expected plasma Cmax,ss
Aβ40 = assay: Chronic treatment of APP23 mice: formic acid soluble Aβ40 in forebrain; assay type: in vivo, mouse; conditions: high Compound 1 treatment group
Experimental: as §1
Fifty microliter of forebrain homogenate was mixed with 116.6 μl 100% formic acid, resulting in a final formic acid concentration of 70%. Samples were stored on ice and vortexed every 5 minutes. For neutralization, 50 μl of the mixture were pipetted into a new tube, and 950 μl of 1 M Tris base, containing 1× Complete Protease inhibitor, was added. Tubes were stored at room temperature overnight and then centrifuged for 15 minutes at 14000 rpm in an Eppendorf Microzentrifuge at 4° C. From the top layer, 100 μl are removed and mixed with 100 μl of 3% Blocker A solution (part of the MesoScale assay kit). This sample was either directly applied to the assay plate (dilution 1:1332) or further diluted in 1% Blocker A solution.
Amyloid-β42 increased more than Aβ40 (Aβ42/40 ratio increased by 55% in the vehicle group), in agreement with its higher aggregation propensity.

[6] = Off-target binding or activity

**Q.** What does the source list for `C[C@@]1(c2nc(NC(=O)c3ncc(C(F)(F)F)cc3Cl)ccc2F)CO[C@@](C)(C(F)(F)F)C(N)=N1` [Compound 1, N-(6-((3R,6R)-5-amino-3,6-dimethyl-6-(trifluoromethyl)-3,6-dihydro-2H-1,4-oxazin-3-yl)-5-fluoropyridin-2-yl)-3-chloro-5-(trifluoromethyl)picolinamide]?
**A.** % reduction vs vehicle (brain Aβ40) ([1]; 3 μmol/kg acute, 4 h): 43%; Average Aβ40 brain ± SD ([1]; 3 μmol/kg acute, 4 h): 0.114 ± 0.024 pmol/g; Mini AUEC (brain Aβ40) ([1]; 3 μmol/kg acute): 32%; % reduction vs vehicle (brain Aβ40) ([1]; 3 μmol/kg acute, 24 h): 20%; Average Aβ40 brain ± SD ([1]; 3 μmol/kg acute, 24 h): 0.160 ± 0.033 pmol/g; % reduction vs vehicle (brain Aβ40) ([1]; 10 μmol/kg acute, 4 h): 63%; Average Aβ40 brain ± SD ([1]; 10 μmol/kg acute, 4 h): 0.074 ± 0.014 pmol/g; Mini AUEC (brain Aβ40) ([1]; 10 μmol/kg acute): 47%; % reduction vs vehicle (brain Aβ40) ([1]; 10 μmol/kg acute, 24 h): 31%; Average Aβ40 brain ± SD ([1]; 10 μmol/kg acute, 24 h): 0.139 ± 0.041 pmol/g; % reduction vs vehicle (brain Aβ40) ([1]; 30 μmol/kg acute, 4 h): 77%; Average Aβ40 brain ± SD ([1]; 30 μmol/kg acute, 4 h): 0.046 ± 0.006 pmol/g; Mini AUEC (brain Aβ40) ([1]; 30 μmol/kg acute): 72%; % reduction vs vehicle (brain Aβ40) ([1]; 30 μmol/kg acute, 24 h): 66%; Average Aβ40 brain ± SD ([1]; 30 μmol/kg acute, 24 h): 0.068 ± 0.021 pmol/g; Aβ40 reduction, range over doses ([1]; 4 h): 43-77%; Aβ40 reduction, range over doses ([1]; 24 h): 20-66%; Emax ([1]; Mus musculus, 30 μmol/kg acute, read-out: maximal effect on Aβ reduction in the brain): > 70%; exposure reduction 4 h/24 h [2]: 2-5 fold; AUCbrain (AUC0-24 h) ([2]; 3 umol/kg): 8.67 µmol·h/kg; AUCbrain (AUC0-24 h) ([2]; 10 umol/kg): 15.83 µmol·h/kg; AUCbrain (AUC0-24 h) ([2]; 30 umol/kg): 49.82 µmol·h/kg; Dose-dependent lowering of Aβ40 concentrations in CSF, up to (Aβ40 in CSF; multiple dosing): ~90%; Aβ40 in CSF percent change from baseline, Median (Aβ40 in CSF; single dose 10 mg, 24 h): −14.3%; Dose-dependent lowering of Aβ40 concentrations in CSF, up to (Aβ40 in CSF; single dosing): approximately 80%; safety and tolerability ([3]; 300 mg QD over two weeks): safe and tolerated; safety and tolerability ([3]; 750 mg single dose): safe and tolerated; safety and tolerability [4]: safe and tolerated; Cmax ([5]; once daily dose of 15 mg): 70 to 170 ng/mL; Cmax ([5]; once daily dose of 50 mg): 200 to 500 ng/mL; reduction of deposited Aβ40 and 42 vs vehicle (Aβ40): around 80%; off-target binding or activity [6]: no relevant off-target binding or activity

Reference: patent US10722518B2, “Oxazine derivative for use in the treatment or prevention of cerebral amyloid angiopathy” (Novartis AG, priority 2016, dated 2020)
